According to patent US6348445B1, “Biologically active peptides with reduced toxicity in animals and a method for preparing same” (priority 1992, dated 2002):
Where no end group is shown, it is not given here.

Tested on: MDA-435 human breast carcinoma cells
Type: cell-based
Conditions: 24 h
Method: Human lung carcinoma cells, A-549 (ATCC), and human breast carcinoma cells, MDA-435 (from Sandoz), were grown in Ham's F12K medium (GIBCO-BRL) supplemented with […] fetal bovine serum. Human chronic myelogenous leukemia cells, K-562 (ATCC), were maintained in RPMI 1640 medium (GIBCO-BRL) supplemented with 10% fetal bovine serum. Human melanoma cell line, WM 1617 (from the Wistar Institute), was maintained in 2% Tumor media.
Cytotoxicity assays were performed on the cell lines described above using CytoLite (Packard Instrument Company) following the manufacture's instruction. Briefly, 2×10^4cells/well were seeded into black, 96-well ViewPlates (Packard Instrument Company) in 100 μl/well growth medium. Ser. dilutions of Magainin peptides were then added into the cells and the plates incubated for 24 hours in a humidified 5% CO2 atmosphere at 37° C. Following incubation, 25 μl/well of CytoLite activator solution was added followed by 125 μl/well of amplifier solution. Luminescence was measured on TopCount Microplate Scintillation and Luminescence counter (Packard Instrument Company) using a 1 second count time in SPC (single photon counting) mode at 25 ° C. All assays were performed in triplicate. The peptides tested in this assay were MSI-78(SEQ ID NO: 154 —NH2), MSI-1858(SEQ ID NO: 154 —NH2 Methane Sulfonate), MSI-344(SEQ ID NO: 154 —OH) and MSI-1857(SEQ ID NO: 154 —OH Methane Sulfonate). The results of these assays are shown in FIGS. 2-9 with the corresponding IC50 values in Table VIII. In all cases the activity of the methane sulfonated peptide was as good or better than the parent peptide as indicated by both the survival curves and the IC50 values.

For GIGKFLKKAKKFGKAFVKILKK [MSI-344], which IC50 is on record?
The IC50 was 8 µM.
